{
  "source": "patent US9562082B2",
  "about": "“Production of glycoproteins with low N-glycolylneuraminic acid (Neu5Gc) content” (LEK Pharmaceuticals D.D., priority 2009, dated 2017)",
  "key": {"Recombinant CHO cells [1]": {"system": "Recombinant CHO cells", "experiment": "Neu5Gc content of glycoprotein secreted by CHO cells cultivated with medium additives (RP-HPLC of DMB-labelled sialic acids)", "type": "cell-based, Chinese hamster", "source_text": "Recombinant CHO cells expressing high titres of the glycosylated human glycoproteins were cultivated in suspension culture using rich in-house standard medium without additives according to the invention. After 2 weeks of passages, the cells were first harvested and subsequently inoculated into the same medium, however, supplemented with a range of DMSO concentrations from 0.25% to 1.50% (w/v). The effect of DMSO on growth, productivity, degree of sialylation, and Neu5Gc content was studied.\n“One factor at the time”-experiments with different DMSO concentrations at 37° C. and 33° C., respectively, were performed at first in an attempt to determine the DMSO concentration and temperature which are best to minimise the Neu5Gc content on the glycoproteins secreted. To study the interaction between the parameters (i) DMSO concentration, (ii) time of DMSO addition, and (iii) time of the temperature shift (from 37° C. to 33° C.), further experiments were performed with the Design-Expert/Design-Ease programme (Stat-Ease, Inc., Minneapolis, Minn., USA) using the response surface method. Parameters (i), (ii), and (iii) were chosen as numeric factors and the axial points were set slightly out of already known ranges in order to cover a wide design space. One replicate on axial points, one replicate on factorial points and 4 centre points were performed. The results were analysed using the Design of Expert (DOE) software (Design-Expert, Version 7.1). The results of the shake flask experiments were confirmed in the Biostat®B bioreactor (Sartorius, B. Braun Biotech International, Germany). Exponentially growing cells were taken from cell culture flasks having a surface area of 225 cm^2 (Corning®Costar®). A Biostat®B bioreactor with a working volume of 5 litres was inoculated with 2×10^5 cells/ml. Cells were cultivated in a batch mode under standard conditions (37° C., pH 7.0, dissolved oxygen concentration (DOT) 50%) in the rich in-house standard medium supplemented with 0.75% (w/v) DMSO.\nIn order to study the effect of key intermediates of the metabolic pathway leading to the sialylation of the glycoproteins and consequently to the conversion of Neu5Ac to Neu5Gc, a two factorial minimal resolution IV design, which allows for the estimation of the main effects, was established. Said design allowed the determination which of the components NAcMan, NAcGlc, Man, Fru, and Gal has/have an impact on the degree of sialylation and conversion of Neu5Ac to Neu5Gc. To confirm the results from the DOE findings, the production medium was enriched with 8.75 mM NAcMan and 8.75 mM NAcGlc in combination with manganese (Mn^2+) salts in different concentrations, e.g., in the concentrations mentioned earlier in this application.\nAt the end of the batch culture the cells were removed. The glycoproteins were purified from the remaining harvests by means of immuno-affinity chromatography. Briefly, up to 2 mg of each of the glycoproteins per ml of the chromatographic resin (20-500 ml of the harvest) were loaded onto the column. Elution of the glycoproteins was performed with 0.1 M Na-phosphate buffer, pH 2.5. By adding 1 M Na-phosphate buffer, pH 7.5 (made up by a combination of Na2H-phosphate and NaH2-phosphate), the pH of the eluate was immediately adjusted to 7 and then stored for further analysis at below −60° C.\nSialic acids (Neu5Gc, Neu5Ac, Neu-5,7Ac2, Neu5Gc9Ac, Neu-5,9Ac2, Neu-5,8,9Ac3) were differentiated using highly sensitive RP-HPLC. Enzymatic desialylation with neuraminidase (a2-3,6,8,9-neuraminidase (Sialidase) from Arthrobacter ureafaciens, Roche, USA) released sialic acids. The released sialic acids were labelled with the fluorescent dye 1,2-diamino-4,5-methylenedioxybenzene (DMB). DMB-labelling is non-selective and therefore provides a pool of labelled sialic acid derivates in stoichiometric amounts. Derivates of the DMB-labelled sialic acids were separated on an RP-HPLC column using isocratic elution. […]"}, "Recombinant CHO cells [2]": {"system": "Recombinant CHO cells", "experiment": "Specific productivity (Qp)", "type": "cell-based, Chinese hamster", "settings": "DMSO 0.75, temperature 37", "procedure": "According to the optimal range of the DMSO concentration, a numerical and graphical optimisation was performed using DOE software (FIG. 3). A minimal content of Neu5Gc and a maximal content of the most acidic isoforms were chosen as very important parameters, while increased titres and growth rates were weighted as medium important parameters. The ramps were extended a little over the limits. […] The specific productivity (Qp) was calculated following Equation 1 and expressed as pg of glycoprotein/[…]=(P2-P1)/((X2+X1)*(t2-t1)/2) Equation 1 (P2 and P1 are concentrations of secreted glycoprotein at the end and at the beginning of the repeated batches, respectively; X1 and X2 are cell concentrations at the corresponding time points t1 and t2)."}},
  "data": [
    {"molecule": "C[S+](C)[O-]", "note": "[DMSO, dimethyl sulfoxide]", "values": [
      {"measurement": "average Neu5Gc content for all glycoproteins tested", "setting": "Recombinant CHO cells [1]; 0.25% DMSO", "result": 1.46, "unit": "%"},
      {"measurement": "average Neu5Gc content for all glycoproteins tested", "setting": "Recombinant CHO cells [1]; 0.5% DMSO", "result": 1.17, "unit": "%"},
      {"measurement": "content of Neu5Gc lowered by", "setting": "Recombinant CHO cells [1]; 0.75% (w/v) DMSO, 5 litre bioreactor batch, vs batch without DMSO", "result": "50-60%"},
      {"measurement": "average Neu5Gc content for all glycoproteins tested", "setting": "Recombinant CHO cells [1]; 0.75% DMSO", "result": 0.93, "unit": "%"},
      {"measurement": "average Neu5Gc content for all glycoproteins tested", "setting": "Recombinant CHO cells [1]; 1% DMSO", "result": 0.88, "unit": "%"},
      {"measurement": "average Neu5Gc content for all glycoproteins tested", "setting": "Recombinant CHO cells [1]; 1.25% DMSO", "result": 0.79, "unit": "%"},
      {"measurement": "Neu5Gc content", "setting": "Recombinant CHO cells [1]; darbepoetin alfa, 0.75% (w/v) DMSO, FIG. 1b", "result": "about 0.9%"},
      {"measurement": "content of Neu5Gc", "setting": "Recombinant CHO cells [1]; darbepoetin alfa, bioreactor batch process, 0.75% (w/v) DMSO", "result": "about 1%"},
      {"measurement": "content of Neu5Gc", "setting": "Recombinant CHO cells [1]; darbepoetin alfa, shake flask batch process, 0.75% (w/v) DMSO", "result": "about 0.8%"},
      {"measurement": "Specific productivity, DOE point prediction", "setting": "Recombinant CHO cells [2]", "result": 2.43, "unit": "pcd"}
    ]}
  ]
}
